Test results as given in US20020155172A1, “Methods and compounds for decreasing cell toxicity or death” (priority 2000, published 2002).

Legend:
[1] = tested on: wild type mice and R62 mice; assay: Tolerability of Congo red in mice; format: in vivo
Procedure: The latter procedure involved administration of 0.25 μl of the drug (1 mg/ml in 0.4% DMSO) per hour, for a period of at least 28 days. The treatment began at the latter part of the seventh week. When treatment began, although very little motor symptomology was observed, tremors were becoming apparent. Polyglutamine inclusions were readily detected at the beginning of treatment. The effect of Congo red on the polyglutamine-induced toxicity in muscle strength in the animal model R62 was quantified by the use of a rotorod.
In addition, the ability of Congo red to inhibit the formation as well as to disrupt preformed polyglutamine oligomers allowed us to examine the role of polyglutamine aggregates in neuronal dysfunction and degeneration characteristic of polyglutamine expansion diseases. In these studies, we used the animal model of Huntington's disease (R62), which expresses the truncated form of huntingtin with 139 CAG repeats Mangiarini et al. (supra). We took advantage of our finding that in addition to inhibiting polyglutamine oligomerization, Congo red also disrupts pre-formed oligomers, thus allowing assessment of the impact of Congo red on disease progression after formation of polyglutamine aggregates and the onset of symptoms. R62 transgenic mice and CBAxC57B1/6 F1 wild type littermates were obtained from Jackson Laboratories (Bar Harbor, Me.) at the age of five weeks. […]

[2] = tested on: GST-Q19, GST-Q62, and GST-Q81; assay: Chemical absorption assay, polyglutamine repeat length; format: binding; details: 10 μg/ml Congo red in PBS; equal protein concentrations
Procedure: FIG. 6A is a graph of the percent of binding of Congo red to expanded polyglutamine repeats Q81, Q62, and Q19.
To determine if Congo red and its derivatives directly bind to expanded polyglutamine aggregates, we designed a chemical absorption assay. This assay measures the remaining Congo red in the supernatant after incubating the supernatant with GST-tagged polyglutamine beads, and removing the GST-polyglutamine beads by centrifugation. This assay was carried out as follows. Recombinant protein GST-Q19, GST-Q62, and GST-Q81 (containing 19, 62, and 81 polyglutamines, respectively) was purified from E. coli by glutathione beads. After several washes with PBS containing protease inhibitors, the beads were allowed to settle to the bottom of the tube at 24° C. for 10 minutes. The polyglutamine-bound beads were aliquoted and diluted with two volumes of 10 μg/ml of Congo red in PBS. The beads were mixed and centrifuged at 15,000 rpm for 2 minutes and the supernatant was removed and diluted 1:100. The percentage absorbance of the compound remaining in the supernatant after absorption with the GST-polyQ beads was then detected. In addition, Congo red- or PBS-only treated polyglutamine polypeptide bead pellets were washed three times with 100 volumes of PBS and then the protein was separated by 12% polyacrylamide gels and immunoblotted as mentioned above. […]

caspase-8 = assay: Activation of caspase-8 by Western blot; format: cell-based; details: HeLa, HA-tagged Q79-GFP
Procedure: Expanded polyglutamine repeats recruit and activate caspase-8 (Sanchez et al., supra). We tested if the treatment of cells expressing expanded polyglutamine repeats with Congo red inhibits the activation of caspase-8. HeLa cells were transfected with a hemagglutinin-tagged (HA) […]-GFP construct in the presence or absence of Congo red and the cell lysates were analyzed by Western blot analysis for the expression of caspase-8, or for expression of HA. The appearance of a 45 kilodalton active caspase-8 fragment was detected at 24 hours after transfection, which was before significant loss of cytoplasmic membrane integrity and morphological changes occurred, and near the time of ATP loss (FIG. 5E).

Nc1c(/N=N/c2ccc(-c3ccc(/N=N/c4cc(S(=O)(=O)O)c5ccccc5c4N)cc3)cc2)cc(S(=O)(=O)O)c2ccccc12 [Congo red, diphenyldiazo-bis-alpha-napthylaminesulfonate] was tested, and the “gross morphological abnormalities or symptoms” value ([1]; IP or ICV infusion, normal wild type mice or pre- or post-symptomatic R62 mice) was “no gross morphological abnormalities or induction of any obvious symptoms”, the drug toxicity ([1]; intraperitoneal injection up to 13 mg/kg every 48 hours for two weeks) was “no obvious drug toxicity” and the “affinity for polyglutamine repeats Q81 or Q62 compared to Q19” value [2] was “significantly higher affinity for expanded polyglutamine repeats that were 81 or 62 polyglutamines in length”. For the same molecule, the “appearance of active caspase-8 (45 kilodalton fragment)” value (caspase-8) was “completely inhibited the appearance of active caspase-8”.
